Laboratory results: ChEMBL document CHEMBL1145481, “Molecular epidemiology of telithromycin-resistant pneumococci in Finland” (2007)

Legend:
Streptococcus pneumoniae [1] = experiment: Antimicrobial activity against telithromycin-resistant Streptococcus pneumoniae 759 isolate with erm(B) resistance gene from patient ear by disk diffusion test; format: functional
Streptococcus pneumoniae [2] = experiment: Antimicrobial activity against telithromycin-resistant Streptococcus pneumoniae 1041 isolate with erm(B) resistance gene from patient blood by disk diffusion test; format: functional
Streptococcus pneumoniae [3] = experiment: Antimicrobial activity against telithromycin-resistant Streptococcus pneumoniae 837 isolate with mutation in erm(B), mef(E), L4 Ser20Asn mutant gene from patient sputum by disk diffusion test; format: functional
Streptococcus pneumoniae [4] = experiment: Antimicrobial activity against telithromycin-resistant Streptococcus pneumoniae 547 isolate with erm(B) resistance gene from patient sinuitis by disk diffusion test; format: functional
Streptococcus pneumoniae [5] = experiment: Antimicrobial activity against telithromycin-resistant Streptococcus pneumoniae 376 isolate with erm(B) resistance gene from patient ear by disk diffusion test; format: functional
Streptococcus pneumoniae [6] = experiment: Antimicrobial activity against telithromycin-resistant Streptococcus pneumoniae 897 isolate with erm(B) resistance gene from patient bronchoalveolar lavage by disk diffusion test; format: functional, Lung
Streptococcus pneumoniae [7] = experiment: Antimicrobial activity against telithromycin-resistant Streptococcus pneumoniae 115 isolate with erm(B) resistance gene from patient ear by disk diffusion test; format: functional
Streptococcus pneumoniae [8] = experiment: Antimicrobial activity against telithromycin-resistant Streptococcus pneumoniae 427 isolate with erm(B) resistance gene from patient sinuitis by disk diffusion test; format: functional
Streptococcus pneumoniae [9] = experiment: Antimicrobial activity against telithromycin-resistant Streptococcus pneumoniae 237 isolate with erm(B) resistance gene from patient ear by disk diffusion test; format: functional
Streptococcus pneumoniae [10] = experiment: Antimicrobial activity against telithromycin-resistant Streptococcus pneumoniae 326 isolate with erm(B) resistance gene from patient blood by disk diffusion test; format: functional
Streptococcus pneumoniae [11] = experiment: Antimicrobial activity against telithromycin-resistant Streptococcus pneumoniae 683 isolate with erm(B) resistance gene from patient sputum by disk diffusion test; format: functional
Streptococcus pneumoniae [12] = experiment: Antimicrobial activity against telithromycin-resistant Streptococcus pneumoniae 981 isolate with erm(B) resistance gene from patient blood by disk diffusion test; format: functional
Streptococcus pneumoniae [13] = experiment: Antimicrobial activity against telithromycin-resistant Streptococcus pneumoniae 838 isolate with erm(B) and mef(E) resistance gene from patient ear by disk diffusion test; format: functional
Streptococcus pneumoniae [14] = experiment: Antimicrobial activity against telithromycin-resistant Streptococcus pneumoniae 443 isolate with erm(B) resistance gene from patient ear by disk diffusion test; format: functional
Streptococcus pneumoniae [15] = experiment: Antimicrobial activity against telithromycin-resistant Streptococcus pneumoniae 426 isolate with erm(B) resistance gene from patient sinuitis by disk diffusion test; format: functional
Streptococcus pneumoniae [16] = experiment: Antimicrobial activity against telithromycin-resistant Streptococcus pneumoniae 859 isolate with erm(B) resistance gene from patient bronchoalveolar lavage by disk diffusion test; format: functional, Lung
Streptococcus pneumoniae [17] = experiment: Antimicrobial activity against telithromycin-resistant Streptococcus pneumoniae 460 isolate with erm(B) resistance gene from patient ear by disk diffusion test; format: functional
Streptococcus pneumoniae [18] = experiment: Antimicrobial activity against telithromycin-resistant Streptococcus pneumoniae 1022 isolate with erm(B) resistance gene from patient ear by disk diffusion test; format: functional
Streptococcus pneumoniae [19] = experiment: Antimicrobial activity against telithromycin-resistant Streptococcus pneumoniae 918 isolate with erm(B) resistance gene from patient eye by disk diffusion test; format: functional
Streptococcus pneumoniae [20] = experiment: Antimicrobial activity against telithromycin-resistant Streptococcus pneumoniae 811 isolate with erm(B) resistance gene from patient blood by disk diffusion test; format: functional
Streptococcus pneumoniae [21] = experiment: Antimicrobial activity against telithromycin-resistant Streptococcus pneumoniae 415 isolate with erm(B) resistance gene from patient blood by disk diffusion test; format: functional
Streptococcus pneumoniae [22] = experiment: Antimicrobial activity against telithromycin-resistant Streptococcus pneumoniae 1016 isolate with erm(B) resistance gene from patient blood by disk diffusion test; format: functional
Streptococcus pneumoniae [23] = experiment: Antimicrobial activity against telithromycin-resistant Streptococcus pneumoniae 1017 isolate with erm(B) resistance gene from patient ear by disk diffusion test; format: functional
Streptococcus pneumoniae [24] = experiment: Antimicrobial activity against telithromycin-resistant Streptococcus pneumoniae 552 isolate with erm(B) resistance gene from patient sinuitis by disk diffusion test; format: functional
Streptococcus pneumoniae [25] = experiment: Antimicrobial activity against telithromycin-resistant Streptococcus pneumoniae 1051 isolate with erm(B) resistance gene from patient ear by disk diffusion test; format: functional
Streptococcus pneumoniae [26] = experiment: Antimicrobial activity against telithromycin-resistant Streptococcus pneumoniae 833 isolate with erm(B) resistance gene from patient sinuitis by disk diffusion test; format: functional

| SMILES | Activity (Streptococcus pneumoniae [1]) [µg/mL] | Activity (Streptococcus pneumoniae [2]) [µg/mL] | Activity (Streptococcus pneumoniae [3]) [µg/mL] | Activity (Streptococcus pneumoniae [4]) [µg/mL] | Activity (Streptococcus pneumoniae [5]) [µg/mL] | Activity (Streptococcus pneumoniae [6]) [µg/mL] | Activity (Streptococcus pneumoniae [7]) [µg/mL] | Activity (Streptococcus pneumoniae [8]) [µg/mL] | Activity (Streptococcus pneumoniae [9]) [µg/mL] | Activity (Streptococcus pneumoniae [10]) [µg/mL] | Activity (Streptococcus pneumoniae [11]) [µg/mL] | Activity (Streptococcus pneumoniae [12]) [µg/mL] | Activity (Streptococcus pneumoniae [13]) [µg/mL] | Activity (Streptococcus pneumoniae [14]) [µg/mL] | Activity (Streptococcus pneumoniae [15]) [µg/mL] | Activity (Streptococcus pneumoniae [16]) [µg/mL] | Activity (Streptococcus pneumoniae [17]) [µg/mL] | Activity (Streptococcus pneumoniae [18]) [µg/mL] | Activity (Streptococcus pneumoniae [19]) [µg/mL] | Activity (Streptococcus pneumoniae [20]) [µg/mL] | other results |
| --- | --- | --- | --- | --- | --- | --- | --- | --- | --- | --- | --- | --- | --- | --- | --- | --- | --- | --- | --- | --- | --- |
| CC[C@H]1OC(=O)[C@H](C)[C@@H](O[C@H]2C[C@@](C)(OC)[C@@H](O)[C@H](C)O2)[C@H](C)[C@@H](O[C@@H]2O[C@H](C)C[C@H](N(C)C)[C@H]2O)[C@](C)(O)C[C@@H](C)C(=O)[C@H](C)[C@@H](O)[C@]1(C)O [ERYTHROMYCIN] | 129 | 129 | 129 | 129 | 129 | 129 | 129 | 129 | 129 | 129 | 129 | 129 | 129 | 129 | 129 | 129 | 129 | 129 | 129 | 129 | Activity (Streptococcus pneumoniae [21]): 129 µg/mL; Activity (Streptococcus pneumoniae [22]): 129 µg/mL; Activity (Streptococcus pneumoniae [23]): 129 µg/mL; Activity (Streptococcus pneumoniae [24]): 129 µg/mL; Activity (Streptococcus pneumoniae [25]): 129 µg/mL; Activity (Streptococcus pneumoniae [26]): 129 µg/mL |
| CN(C)[C@@H]1C(O)=C(C(N)=O)C(=O)[C@@]2(O)C(O)=C3C(=O)c4c(O)cccc4[C@@](C)(O)[C@H]3C[C@@H]12 [TETRACYCLINE] | 32 | 32 | 64 | 32 | 0.5 | 64 | 64 | 32 | 32 | 32 | 32 | 32 | 32 | 32 | 32 | 32 | 32 | 32 | 32 | 16 | Activity (Streptococcus pneumoniae [21]): 32 µg/mL; Activity (Streptococcus pneumoniae [22]): 32 µg/mL; Activity (Streptococcus pneumoniae [23]): 32 µg/mL; Activity (Streptococcus pneumoniae [24]): 32 µg/mL; Activity (Streptococcus pneumoniae [25]): 32 µg/mL; Activity (Streptococcus pneumoniae [26]): 32 µg/mL |
